Laboratory results: BigSolDB 2.1

c1ccc2c(c1)OP1(=NP3(=NP4(=N1)Oc1ccccc1O4)Oc1ccccc1O3)O2
Details | solubility (mole fraction)
in 1,2-dichloroethane, 293.25 K | 0.000409
in 1,2-dichloroethane, 298.35 K | 0.000585
in 1,2-dichloroethane, 303.15 K | 0.000765
in 1,2-dichloroethane, 308.15 K | 0.00107
in 1,2-dichloroethane, 313.25 K | 0.0015
in 1,2-dichloroethane, 318.55 K | 0.00195
in 1,2-dichloroethane, 323.15 K | 0.00252
in 1,2-dichloroethane, 328.55 K | 0.00324
in 1,2-dichloroethane, 333.15 K | 0.00419
in 1,2-dichloroethane, 338.25 K | 0.00582
in THF, 291.95 K | 0.000921
in THF, 298.25 K | 0.00112
in THF, 303.65 K | 0.00137
in THF, 307.95 K | 0.00159
in THF, 313.25 K | 0.00188
in THF, 318.35 K | 0.00218
in THF, 323.15 K | 0.0025
in THF, 328.25 K | 0.00292
in acetone, 294.35 K | 0.00025
in acetone, 298.35 K | 0.000323
in acetone, 303.45 K | 0.000429
in acetone, 308.65 K | 0.000588
in acetone, 313.35 K | 0.000759
in acetone, 318.15 K | 0.000977
in acetone, 323.25 K | 0.00126
in acetonitrile, 293.25 K | 0.000116
in acetonitrile, 298.15 K | 0.000217
in acetonitrile, 303.25 K | 0.000289
in acetonitrile, 308.15 K | 0.000369
in acetonitrile, 313.55 K | 0.000471
in acetonitrile, 318.25 K | 0.000586
in acetonitrile, 323.15 K | 0.000743
in acetonitrile, 328.35 K | 0.000922
in acetonitrile, 333.15 K | 0.00115
in chloroform, 298.15 K | 0.00214
in chloroform, 303.05 K | 0.0027
in chloroform, 308.05 K | 0.00334
in chloroform, 313.65 K | 0.00427
in chloroform, 318.55 K | 0.00519
in chloroform, 323.05 K | 0.00628
in chloroform, 328.75 K | 0.00771
in dichloromethane, 288.15 K | 0.00108
in dichloromethane, 291.55 K | 0.00127
in dichloromethane, 294.45 K | 0.00145
in dichloromethane, 298.35 K | 0.00175
in dichloromethane, 303.45 K | 0.00219
in dichloromethane, 308.65 K | 0.00276
in ethanol, 293.95 K | 9.52e-05
in ethanol, 298.05 K | 0.000117
in ethanol, 303.25 K | 0.000153
in ethanol, 308.35 K | 0.000194
in ethanol, 313.35 K | 0.000234
in ethanol, 318.15 K | 0.000308
in ethanol, 322.95 K | 0.00038
in ethanol, 328.15 K | 0.000451
in ethanol, 332.45 K | 0.000562
in ethyl acetate, 298.15 K | 0.000419
in ethyl acetate, 303.35 K | 0.000563
in ethyl acetate, 308.25 K | 0.000675
in ethyl acetate, 313.45 K | 0.000856
in ethyl acetate, 318.25 K | 0.00107
in ethyl acetate, 323.15 K | 0.00133
in ethyl acetate, 328.15 K | 0.00166
in ethyl acetate, 332.45 K | 0.00188
in toluene, 293.15 K | 0.000667
in toluene, 298.25 K | 0.000868
in toluene, 303.15 K | 0.00108
in toluene, 308.35 K | 0.00137
in toluene, 313.55 K | 0.0017
in toluene, 318.25 K | 0.00205
in toluene, 323.15 K | 0.00249
in toluene, 328.35 K | 0.00305
in toluene, 333.15 K | 0.00367
in toluene, 338.25 K | 0.00442
